# Experimental data: patent publication US20230085307A1, “PYRIDAZINONE COMPOUND AND HERBICIDE” (NISSAN CHEMICAL CORPORATION, priority 2019, published 2023)
# How the values were obtained:
# [1] = system: green foxtail; assay: Test Example 5: herbicidal effect by foliage application, plastic box (Table 20, symbol G); assay type: in vivo, green foxtail (Setaria viridis); settings: foliage application, three weeks after application
# Summary of the method: (§1)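 Post-emergence foliar test in sterilized diluvial soil. Compound applied as water-diluted emulsion at a predetermined rate to 14-day-old plants; evaluation at three weeks.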
# [2] = system: redroot pigweed; assay: Test Example 5: herbicidal effect by foliage application, plastic box (Table 20, symbol N); assay type: in vivo, redroot pigweed (Amaranthus retroflexus); settings: foliage application, three weeks after application
# Summary of the method: as §1
# [3] = system: chickweed; assay: Test Example 5: herbicidal effect by foliage application, plastic box (Table 20, symbol P); assay type: in vivo, common chickweed (Stellaria media); settings: foliage application, three weeks after application
# Summary of the method: as §1
# [4] = system: barnyard grass; assay: Test Example 3: herbicidal effect by foliage application, Wagner pot (Table 18, symbol H); assay type: in vivo, barnyard grass (Echinochloa crus-galli)
# Summary of the method: (§2)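 Plants were sown in alluvial soil held under 0.1–0.5 cm standing water and grown 14 days in a greenhouse at 25–30 °C. An emulsifiable formulation, water-diluted to the set dose, was then sprayed onto the foliage, and effects were scored three weeks later using previously defined criteria.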
# [5] = system: Chinese sprangletop; assay: Test Example 3: herbicidal effect by foliage application, Wagner pot (Table 18, symbol D); assay type: in vivo, chinese sprangletop (Leptochloa chinensis)
# Summary of the method: as §2
# [6] = system: velvetleaf; assay: Test Example 5: herbicidal effect by foliage application, plastic box (Table 20, symbol M); assay type: in vivo, velvetleaf (Abutilon theophrasti); settings: foliage application, three weeks after application
# Summary of the method: as §1
# [7] = system: barnyard grass; assay: Test Example 5: herbicidal effect by foliage application, plastic box (Table 20, symbol H); assay type: in vivo, barnyard grass (Echinochloa crus-galli); settings: foliage application, three weeks after application
# Summary of the method: as §1
# [8] = system: windgrass; assay: Test Example 5: herbicidal effect by foliage application, plastic box (Table 20, symbol L); assay type: in vivo, windgrass (Apera spica-venti); settings: foliage application, three weeks after application
# Summary of the method: as §1
# [9] = system: persian speedwell; assay: Test Example 5: herbicidal effect by foliage application, plastic box (Table 20, symbol R); assay type: in vivo, Persian speedwell (Veronica persica); settings: foliage application, three weeks after application
# Summary of the method: as §1
# [10] = system: blackgrass; assay: Test Example 5: herbicidal effect by foliage application, plastic box (Table 20, symbol J); assay type: in vivo, blackgrass (Alopecurus myosuroides); settings: foliage application, three weeks after application
# Summary of the method: as §1
# [11] = system: false cleavers; assay: Test Example 5: herbicidal effect by foliage application, plastic box (Table 20, symbol Q); assay type: in vivo, false cleavers (Galium spurium); settings: foliage application, three weeks after application
# Description: [Test Example 5] Herbicidal Effect Test by Foliage Application
# Sterilized diluvial soil was placed in a plastic box having a length of 21 cm, a width of 13 cm, and a depth of 7 cm. The seeds of each of southern crabgrass, green foxtail, barnyard grass, wild oat, blackgrass, Italian ryegrass, windgrass, velvetleaf, redroot pigweed, lambsquarters, chickweed, false cleavers, persian speedwell, corn, soybean, rice, wheat, beet, and rapeseed were sowed in a spot-like manner and covered with the soil having a thickness of about 1.5 cm. Thereafter, the plants were grown in a greenhouse at 25° C. to 30° C. After 14-day growth of the plants, the emulsion agent of the compound of the present invention prepared according to Formulation Example 2 was diluted with water so as to achieve a predetermined herbicide amount, and the diluted emulsion agent was uniformly applied to a foliage part with a small-sized spray. Three weeks after the herbicide application, the effect of the herbicide on each plant was evaluated according to the criteria of Test Example 1.
# [12] = system: wild oat; assay: Test Example 5: herbicidal effect by foliage application, plastic box (Table 20, symbol I); assay type: in vivo, wild oat (Avena fatua); settings: foliage application, three weeks after application
# Summary of the method: as §1
# [13] = system: rice flat sedge; assay: Test Example 3: herbicidal effect by foliage application, Wagner pot (Table 18, symbol E); assay type: in vivo, rice flat sedge (Cyperus iria)
# Summary of the method: as §2
# [14] = system: lambsquarters; assay: Test Example 5: herbicidal effect by foliage application, plastic box (Table 20, symbol O); assay type: in vivo, lambsquarters (Chenopodium album); settings: foliage application, three weeks after application
# Summary of the method: as §1
# [15] = system: southern crabgrass; assay: Test Example 5: herbicidal effect by foliage application, plastic box (Table 20, symbol F); assay type: in vivo, southern crabgrass (Digitaria ciliaris); settings: foliage application, three weeks after application
# Summary of the method: as §1
# [16] = system: Italian ryegrass; assay: Test Example 5: herbicidal effect by foliage application, plastic box (Table 20, symbol K); assay type: in vivo, Italian ryegrass (Lolium multiflorum); settings: foliage application, three weeks after application
# Summary of the method: as §1
smiles,measurement,setting,value
Cc1nn(C)c(=O)c(-c2c(-c3cc4c(cc3Cl)OCCO4)sc3ccccc23)c1O [1-095],"G: green foxtail, herbicidal effect",[1]; AAH 197 g/ha,0 (Herbicidal rate of 5% or less (almost no effect))
same,"N: redroot pigweed, herbicidal effect",[2]; AAH 197 g/ha,0 (Herbicidal rate of 5% or less (almost no effect))
same,"P: chickweed, herbicidal effect",[3]; AAH 197 g/ha,3 (Herbicidal rate of 40% or more and less than 70%)
same,"herbicidal effect on H (barnyard grass), rating 0-5",[4]; 197 g/ha,4 (Herbicidal rate of 70% or more and less than 90%)
same,"herbicidal effect on D (Chinese sprangletop), rating 0-5",[5]; 197 g/ha,0 (Herbicidal rate of 5% or less (almost no effect))
same,"M: velvetleaf, herbicidal effect",[6]; AAH 197 g/ha,0 (Herbicidal rate of 5% or less (almost no effect))
same,"H: barnyard grass, herbicidal effect",[7]; AAH 197 g/ha,0 (Herbicidal rate of 5% or less (almost no effect))
same,"L: windgrass, herbicidal effect",[8]; AAH 197 g/ha,0 (Herbicidal rate of 5% or less (almost no effect))
same,"R: persian speedwell, herbicidal effect",[9]; AAH 197 g/ha,4 (Herbicidal rate of 70% or more and less than 90%)
same,"J: blackgrass, herbicidal effect",[10]; AAH 197 g/ha,0 (Herbicidal rate of 5% or less (almost no effect))
same,"Q: false cleavers, herbicidal effect",[11]; AAH 197 g/ha,3 (Herbicidal rate of 40% or more and less than 70%)
same,"I: wild oat, herbicidal effect",[12]; AAH 197 g/ha,0 (Herbicidal rate of 5% or less (almost no effect))
same,"herbicidal effect on E (rice flat sedge), rating 0-5",[13]; 197 g/ha,1 (Herbicidal rate of 5% or more and less than 20%)
same,"O: lambsquarters, herbicidal effect",[14]; AAH 197 g/ha,0 (Herbicidal rate of 5% or less (almost no effect))
same,"F: southern crabgrass, herbicidal effect",[15]; AAH 197 g/ha,0 (Herbicidal rate of 5% or less (almost no effect))
same,"K: Italian ryegrass, herbicidal effect",[16]; AAH 197 g/ha,0 (Herbicidal rate of 5% or less (almost no effect))
Cc1nn(C)c(=O)c(-c2c(-c3ccc(Oc4ccccc4)cc3)sc3ccccc23)c1O [1-149],"G: green foxtail, herbicidal effect",[1]; AAH 320 g/ha,4 (Herbicidal rate of 70% or more and less than 90%)
same,"N: redroot pigweed, herbicidal effect",[2]; AAH 320 g/ha,5 (Herbicidal rate of 90% or more (almost completely withered))
same,"P: chickweed, herbicidal effect",[3]; AAH 320 g/ha,3 (Herbicidal rate of 40% or more and less than 70%)
same,"herbicidal effect on H (barnyard grass), rating 0-5",[4]; 320 g/ha,3 (Herbicidal rate of 40% or more and less than 70%)
same,"herbicidal effect on D (Chinese sprangletop), rating 0-5",[5]; 320 g/ha,3 (Herbicidal rate of 40% or more and less than 70%)
same,"M: velvetleaf, herbicidal effect",[6]; AAH 320 g/ha,2 (Herbicidal rate of 20% or more and less than 40%)
same,"H: barnyard grass, herbicidal effect",[7]; AAH 320 g/ha,3 (Herbicidal rate of 40% or more and less than 70%)
same,"L: windgrass, herbicidal effect",[8]; AAH 320 g/ha,0 (Herbicidal rate of 5% or less (almost no effect))
same,"R: persian speedwell, herbicidal effect",[9]; AAH 320 g/ha,5 (Herbicidal rate of 90% or more (almost completely withered))
same,"J: blackgrass, herbicidal effect",[10]; AAH 320 g/ha,0 (Herbicidal rate of 5% or less (almost no effect))
same,"Q: false cleavers, herbicidal effect",[11]; AAH 320 g/ha,5 (Herbicidal rate of 90% or more (almost completely withered))
same,"I: wild oat, herbicidal effect",[12]; AAH 320 g/ha,0 (Herbicidal rate of 5% or less (almost no effect))
same,"herbicidal effect on E (rice flat sedge), rating 0-5",[13]; 320 g/ha,5 (Herbicidal rate of 90% or more (almost completely withered))
same,"O: lambsquarters, herbicidal effect",[14]; AAH 320 g/ha,4 (Herbicidal rate of 70% or more and less than 90%)
same,"F: southern crabgrass, herbicidal effect",[15]; AAH 320 g/ha,3 (Herbicidal rate of 40% or more and less than 70%)
same,"K: Italian ryegrass, herbicidal effect",[16]; AAH 320 g/ha,0 (Herbicidal rate of 5% or less (almost no effect))
